Data set [1] has as its target T1, Androgen receptor (Homo sapiens, UniProt P10275).
T1 sequence (P10275 whole entry): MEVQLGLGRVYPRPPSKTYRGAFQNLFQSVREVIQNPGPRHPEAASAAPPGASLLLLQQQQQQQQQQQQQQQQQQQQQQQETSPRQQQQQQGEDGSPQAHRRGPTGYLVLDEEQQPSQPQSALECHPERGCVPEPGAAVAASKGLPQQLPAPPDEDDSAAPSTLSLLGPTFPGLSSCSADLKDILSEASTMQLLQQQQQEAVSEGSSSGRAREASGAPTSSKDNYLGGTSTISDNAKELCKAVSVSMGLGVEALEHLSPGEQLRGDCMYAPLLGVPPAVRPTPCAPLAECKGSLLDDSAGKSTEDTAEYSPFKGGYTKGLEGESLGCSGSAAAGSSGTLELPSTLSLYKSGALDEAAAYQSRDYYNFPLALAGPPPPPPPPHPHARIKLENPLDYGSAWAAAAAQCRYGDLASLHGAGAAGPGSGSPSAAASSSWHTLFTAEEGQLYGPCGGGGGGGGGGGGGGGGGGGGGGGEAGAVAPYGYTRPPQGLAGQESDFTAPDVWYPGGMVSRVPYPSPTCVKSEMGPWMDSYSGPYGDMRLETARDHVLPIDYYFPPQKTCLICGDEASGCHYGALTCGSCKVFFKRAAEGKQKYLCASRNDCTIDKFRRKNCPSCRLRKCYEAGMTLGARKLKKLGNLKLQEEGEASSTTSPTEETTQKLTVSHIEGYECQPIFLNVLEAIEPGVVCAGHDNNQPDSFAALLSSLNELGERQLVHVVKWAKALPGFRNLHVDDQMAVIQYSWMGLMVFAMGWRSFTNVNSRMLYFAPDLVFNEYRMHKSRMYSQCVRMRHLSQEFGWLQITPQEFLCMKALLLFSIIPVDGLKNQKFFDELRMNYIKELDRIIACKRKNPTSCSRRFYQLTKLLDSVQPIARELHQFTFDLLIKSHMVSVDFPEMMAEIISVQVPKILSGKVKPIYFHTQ
The data set can be described thus: Antagonist activity at androgen receptor (unknown origin) in human LNCap-ARR2PB-eGFP cells by measuring fluorescence intensity measured after 3 days by transcriptional assay. In kind it is cell-based.

Data set [2] concerns LNCaP. The data set can be described thus: Cytotoxicity against human LNCAP cells assessed as inhibition of cell proliferation by MTT assay. The format is functional, cell-based. A general note: Formazan colour is commonly taken as a measure of viable cells.
Data set [3] is described as follows: Cytotoxicity against human Chang liver cells assessed as inhibition of cell proliferation by MTT assay. In kind it is toxicity, cell-based.
A short description of data set [4]: Cytotoxicity against human GES1 cells assessed as inhibition of cell proliferation by MTT assay. The format is toxicity, cell-based.
Data set [5] is described as follows: Inhibition of PSA secretion in human LNCaP ARR2PB-eGFP cells measured after 3 days by immuno assay. In kind it is functional, cell-based. The settings on record: 72 h.
Data set [6] is described as follows: Antagonist activity at mineralocorticoid receptor (unknown origin) transfected in PC-3 cells assessed as inhibition of […]-stimulated transcriptional activity after 3 days by dual luciferase reporter assay. In kind it is cell-based. The conditions noted are these: Homo sapiens, PC-3, 72 h.
In data set [7] the target is T1, Androgen receptor.
The target of data set [8] is T2, Androgen receptor (Homo sapiens, UniProt P10275, F877L). In words: Antagonist activity at androgen receptor F877L mutant (unknown origin) expressed in PC-3 cells assessed as inhibition of transcriptional activity measured after 24 hrs by dual luciferase assay. In kind it is cell-based.
The target of data set [9] is T3, Androgen receptor (Homo sapiens, UniProt P10275, F877L/T878A). The data set can be described thus: Antagonist activity at androgen receptor F877L/T877A dual mutant (unknown origin) expressed in PC-3 cells assessed as inhibition of transcriptional activity measured after 24 hrs by dual luciferase assay. In kind it is cell-based.
Data set [10] has as its target T2, Androgen receptor. The data set can be described thus: Antagonist activity at androgen receptor F877L mutant in human PC-3 cells assessed as inhibition of transcriptional activity measured after 24 hrs by luminescence based microplate reader assay. The format is cell-based.
For data set [11], the target named is T3, Androgen receptor. The data set can be described thus: Antagonist activity at androgen receptor F876L/T877A mutant in human PC-3 cells assessed as inhibition of transcriptional activity measured after 24 hrs by luminescence based microplate reader assay. The format is cell-based.
Data set [12] in a line: Antagonist activity at androgen receptor T878G mutant (unknown origin) expressed in PC-3 cells assessed as inhibition of transcriptional activity measured after 24 hrs by dual luciferase assay. In kind it is cell-based. The settings on record: Homo sapiens, PC-3, 24 h.
The target of data set [13] is T4, Androgen receptor (Homo sapiens) (UniProt P10275).
T4 sequence (whole entry): T1 sequence (P10275 whole entry)
In words: Antagonist activity at human AR AF2 assessed as inhibition of fluorescent-labelled D11-FxxLF peptide Co-activator to receptor by TR-FRET assay. The settings on record: filed as antagonist. For orientation: TR-FRET usually uses a lanthanide donor and a delayed reading to cut background.

Data set [14] has as its system LNCaP. The data set can be described thus: Antitumor activity against human LNCAP cells xenografted in CB17-SCID mouse model assessed as inhibition of tumor growth at 100 mg/kg/day, po measured upto 4 weeks. The format is functional, organism-based. For orientation: Xenograft models place foreign cells or tissue in a host animal.
The subject of data set [15] is LNCaP. In words: Antitumor activity against human LNCAP cells xenografted in CB17-SCID mouse model assessed as inhibition of tumor growth at 40 mg/kg/day, po measured upto 4 weeks. In kind it is functional, organism-based.
Data set [16] in a line: Toxicity in CB17 SCID mouse xenografted with human LNCAP cells assessed as body weight loss at 100 mg/kg/day,po measured upto 4 weeks. In kind it is organism-based. The conditions noted are these: in vivo, 672 h.

These results are taken from ChEMBL document CHEMBL5104187, “Discovery of 2-(1-(3-Chloro-4-cyanophenyl)-1H-pyrazol-3-yl)acetamides as Potent, Selective, and Orally Available Antagonists Targeting the Androgen Receptor” (J Med Chem, 2022).

Calls of active or inactive are those of the source. The rule behind the calls is not given here.

The term IC50 denotes the point on the concentration scale where inhibition reaches its midpoint. What is called Kd is the concentration at which binding is half-saturated. Read a high Kd as a looser complex.

T2 sequence (P10275 whole entry F877L): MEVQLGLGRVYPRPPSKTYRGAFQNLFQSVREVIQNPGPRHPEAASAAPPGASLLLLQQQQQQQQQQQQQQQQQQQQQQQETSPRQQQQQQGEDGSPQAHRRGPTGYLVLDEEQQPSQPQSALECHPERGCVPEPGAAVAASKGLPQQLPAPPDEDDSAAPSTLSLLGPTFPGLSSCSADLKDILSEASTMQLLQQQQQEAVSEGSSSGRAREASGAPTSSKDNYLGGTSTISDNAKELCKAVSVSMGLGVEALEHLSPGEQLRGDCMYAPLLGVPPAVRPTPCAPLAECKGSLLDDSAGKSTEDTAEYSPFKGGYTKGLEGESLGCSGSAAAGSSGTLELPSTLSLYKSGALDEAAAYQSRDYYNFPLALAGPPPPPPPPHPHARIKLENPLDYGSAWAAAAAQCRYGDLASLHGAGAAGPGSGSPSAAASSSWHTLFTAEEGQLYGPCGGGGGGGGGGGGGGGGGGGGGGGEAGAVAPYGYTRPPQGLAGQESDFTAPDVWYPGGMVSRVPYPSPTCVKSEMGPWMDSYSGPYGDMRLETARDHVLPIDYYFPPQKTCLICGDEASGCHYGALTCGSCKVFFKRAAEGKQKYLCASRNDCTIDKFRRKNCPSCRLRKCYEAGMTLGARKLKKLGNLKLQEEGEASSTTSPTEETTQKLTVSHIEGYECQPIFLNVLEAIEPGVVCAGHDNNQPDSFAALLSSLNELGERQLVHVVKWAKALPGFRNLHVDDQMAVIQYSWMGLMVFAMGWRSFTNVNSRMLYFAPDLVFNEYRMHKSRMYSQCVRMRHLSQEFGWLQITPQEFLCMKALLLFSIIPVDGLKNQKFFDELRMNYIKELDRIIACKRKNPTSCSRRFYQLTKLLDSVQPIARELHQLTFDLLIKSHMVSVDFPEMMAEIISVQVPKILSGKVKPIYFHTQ
T3 sequence (P10275 whole entry F877L/T878A): as the sequence (P10275 whole entry F877L) above, with T878A counted along it

For the compound `N#Cc1ccc(-n2ccc(CC(=O)Nc3ccc(F)nc3)n2)cc1Cl`, the half-inhibitory concentration (IC50) in data set [1] is 0.069 µM; in [2], 6.23 µM; in data set [3], over 1000 µM; in [4] it was over 1000 µM; in [5], 0.89 µM; in data set [6] it was 5.54 µM. Also, the IC50 in data set [8] worked out at 0.46 µM; in [9], 0.27 µM; in [10], 0.17 µM; in data set [11] it was 0.27 µM; in data set [12] it was 0.045 µM. Moreover, the Kd in data set [7] is 20.5 µM. The outcome in data set [13], in data set [14] and in data set [15] was Active. Moreover, the Activity entry in data set [16] is “Non-Toxic”.
